{"source": "the supplement of paper PMC11208160"}
{"assay": "recombinant UMI read abundance after kanamycin selection (control-corrected) (log10(CPM+1)); higher = more efficient recombination; extreme values may be limits of the assay; sequences stand for … in AGTGCAGAGAAAATCGGCCAGTTTTCTCTGCCTGCAGTCCGCATGCCGTGGGACCCCTTGGGTTCTAACCTGTTGCCTAGATTTATGCAGCGGACTGCCTTTCTCCCAAAGTGATAAACCGG…AGGTTGGTTTCACT; site = the 11-nt donor", "summary_of_the_method": "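Pooled Escherichia coli screen of donor and donor-binding-loop pairs for the IS621 bridge recombinase. Each pair sits with a 12-nt UMI on a plasmid carrying a promoterless kanamycin gene. The library was co-electroporated with a target plasmid encoding a fixed target and T7-inducible recombinase, then plated with IPTG (0.07 mM) plus kanamycin, or unselected, each in two replicates. Recombinant UMIs were PCR-amplified across the donor–target junction and sequenced. Counts became CPM, averaged over replicates, scaled by control-derived factors and reported as log10(CPM+1).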"}
{"sequence": "CGGAATCCATGGACCGGTTTTCCCGGTAATCCGTATTTGTT (site CGGAATCCTTA)", "recombinant UMI read abundance (log10)": 1.56}
{"sequence": "CGGAATCCATGGACCGGTTTTCCCGGTAATCCGTATTTGTT (site CGGAATCCTTG)", "recombinant UMI read abundance (log10)": 0}
{"sequence": "CGGAATCCATGGACCGGTTTTCCCGGTAATCCGTATTTGTT (site CGGAATGCTAA)", "recombinant UMI read abundance (log10)": 0.0054}
{"sequence": "CGGAATCCATGGACCGGTTTTCCCGGTAATCCGTATTTGTT (site CGGAATGCTAC)", "recombinant UMI read abundance (log10)": 0}
{"sequence": "CGGAATCCATGGACCGGTTTTCCCGGTAATCCGTATTTGTT (site CGGAATGCTCA)", "recombinant UMI read abundance (log10)": 0}
{"sequence": "CGGAATCCATGGACCGGTTTTCCCGGTAATCCGTATTTGTT (site CGGAATTCTAA)", "recombinant UMI read abundance (log10)": 0}
{"sequence": "CGGAATCCATGGACCGGTTTTCCCGGTAATCCGTATTTGTT (site CGGAATTCTAG)", "recombinant UMI read abundance (log10)": 0}
{"sequence": "CGGAATCCATGGACCGGTTTTCCCGGTAATCCGTATTTGTT (site CGGAATTCTTA)", "recombinant UMI read abundance (log10)": 0}
{"sequence": "CGGAATCCATGGACCGGTTTTCCCGGTAATCCGTATTTGTT (site CGGACCCCTAA)", "recombinant UMI read abundance (log10)": 0.00922}
{"sequence": "CGGAATCCATGGACCGGTTTTCCCGGTAATCCGTATTTGTT (site CGGACTCCTAA)", "recombinant UMI read abundance (log10)": 0.00741}
{"sequence": "CGGAATCCATGGACCGGTTTTCCCGGTAATCCGTATTTGTT (site CGGACTCCTAC)", "recombinant UMI read abundance (log10)": 0.00516}
{"sequence": "CGGAATCCATGGACCGGTTTTCCCGGTAATCCGTATTTGTT (site CGGACTCCTCA)", "recombinant UMI read abundance (log10)": 0.00467}
{"sequence": "CGGAATCCATGGACCGGTTTTCCCGGTAATCCGTATTTGTT (site CGGACTGCTAA)", "recombinant UMI read abundance (log10)": 0.0124}
{"sequence": "CGGAATCCATGGACCGGTTTTCCCGGTAATCCGTATTTGTT (site CGGAGGCCTAA)", "recombinant UMI read abundance (log10)": 0.012}
{"sequence": "CGGAATCCATGGACCGGTTTTCCCGGTAATCCGTATTTGTT (site CGGAGTACTAA)", "recombinant UMI read abundance (log10)": 0.00934}
{"sequence": "CGGAATCCATGGACCGGTTTTCCCGGTAATCCGTATTTGTT (site CGGAGTCCTAA)", "recombinant UMI read abundance (log10)": 0.00217}
{"sequence": "CGGAATCCATGGACCGGTTTTCCCGGTAATCCGTATTTGTT (site CGGAGTCCTAT)", "recombinant UMI read abundance (log10)": 0}
{"sequence": "CGGAATCCATGGACCGGTTTTCCCGGTAATCCGTATTTGTT (site CGGAGTCCTGA)", "recombinant UMI read abundance (log10)": 0}
{"sequence": "CGGAATCCATGGACCGGTTTTCCCGGTAATCCGTATTTGTT (site CGGATACCTAA)", "recombinant UMI read abundance (log10)": 0.0155}
{"sequence": "CGGAATCCATGGACCGGTTTTCCCGGTAATCCGTATTTGTT (site CGGATTCCTAA)", "recombinant UMI read abundance (log10)": 0.0126}
{"sequence": "CGGAATCCATGGACCGGTTTTCCCGGTAATCCGTATTTGTT (site CGGATTCCTAG)", "recombinant UMI read abundance (log10)": 0}
{"sequence": "CGGAATCCATGGACCGGTTTTCCCGGTAATCCGTATTTGTT (site CGGATTCCTTA)", "recombinant UMI read abundance (log10)": 0}
{"sequence": "CGGAATCCATGGACCGGTTTTCCCGGTAATCCGTATTTGTT (site CGGATTTCTAA)", "recombinant UMI read abundance (log10)": 0}
{"sequence": "CGGAATCCATGGACCGGTTTTCCCGGTAATCCGTATTTGTT (site CGGCACCCTAA)", "recombinant UMI read abundance (log10)": 0.0425}
{"sequence": "CGGAATCCATGGACCGGTTTTCCCGGTAATCCGTATTTGTT (site CGGCATCCTAA)", "recombinant UMI read abundance (log10)": 0.0145}
{"sequence": "CGGAATCCATGGACCGGTTTTCCCGGTAATCCGTATTTGTT (site CGGCATCCTAC)", "recombinant UMI read abundance (log10)": 0.011}
{"sequence": "CGGAATCCATGGACCGGTTTTCCCGGTAATCCGTATTTGTT (site CGGCATCCTCA)", "recombinant UMI read abundance (log10)": 0.00889}
{"sequence": "CGGAATCCATGGACCGGTTTTCCCGGTAATCCGTATTTGTT (site CGGCATGCTAA)", "recombinant UMI read abundance (log10)": 0.0214}
{"sequence": "CGGAATCCATGGACCGGTTTTCCCGGTAATCCGTATTTGTT (site CGGCCTCCTAA)", "recombinant UMI read abundance (log10)": 0}
{"sequence": "CGGAATCCATGGACCGGTTTTCCCGGTAATCCGTATTTGTT (site CGGGAACCTAA)", "recombinant UMI read abundance (log10)": 0.00313}
{"sequence": "CGGAATCCATGGACCGGTTTTCCCGGTAATCCGTATTTGTT (site CGGGATCCTAA)", "recombinant UMI read abundance (log10)": 0.0888}
{"sequence": "CGGAATCCATGGACCGGTTTTCCCGGTAATCCGTATTTGTT (site CGGGATCCTAG)", "recombinant UMI read abundance (log10)": 0}
{"sequence": "CGGAATCCATGGACCGGTTTTCCCGGTAATCCGTATTTGTT (site CGGGATCCTTA)", "recombinant UMI read abundance (log10)": 0.00923}
{"sequence": "CGGAATCCATGGACCGGTTTTCCCGGTAATCCGTATTTGTT (site CGGGATTCTAA)", "recombinant UMI read abundance (log10)": 0}
{"sequence": "CGGAATCCATGGACCGGTTTTCCCGGTAATCCGTATTTGTT (site CGGGTTCCTAA)", "recombinant UMI read abundance (log10)": 0.0107}
{"sequence": "CGGAATCCATGGACCGGTTTTCCCGGTAATCCGTATTTGTT (site CGGTAGCCTAA)", "recombinant UMI read abundance (log10)": 0.0806}
{"sequence": "CGGAATCCATGGACCGGTTTTCCCGGTAATCCGTATTTGTT (site CGGTATACTAA)", "recombinant UMI read abundance (log10)": 0.0163}
{"sequence": "CGGAATCCATGGACCGGTTTTCCCGGTAATCCGTATTTGTT (site CGGTATCCTAA)", "recombinant UMI read abundance (log10)": 0.107}
{"sequence": "CGGAATCCATGGACCGGTTTTCCCGGTAATCCGTATTTGTT (site CGGTATCCTAT)", "recombinant UMI read abundance (log10)": 0}
{"sequence": "CGGAATCCATGGACCGGTTTTCCCGGTAATCCGTATTTGTT (site CGGTATCCTGA)", "recombinant UMI read abundance (log10)": 0}
{"sequence": "CGGAATCCATGGACCGGTTTTCCCGGTAATCCGTATTTGTT (site CGGTGTCCTAA)", "recombinant UMI read abundance (log10)": 0.0136}
{"sequence": "CGGAATCCATGGACCGGTTTTCCCGGTAATCCGTATTTGTT (site CGTAAGCCTAA)", "recombinant UMI read abundance (log10)": 0.0106}
{"sequence": "CGGAATCCATGGACCGGTTTTCCCGGTAATCCGTATTTGTT (site CGTAATACTAA)", "recombinant UMI read abundance (log10)": 0.00407}
{"sequence": "CGGAATCCATGGACCGGTTTTCCCGGTAATCCGTATTTGTT (site CGTAATCCTAA)", "recombinant UMI read abundance (log10)": 0.0103}
{"sequence": "CGGAATCCATGGACCGGTTTTCCCGGTAATCCGTATTTGTT (site CGTAATCCTAT)", "recombinant UMI read abundance (log10)": 0}
{"sequence": "CGGAATCCATGGACCGGTTTTCCCGGTAATCCGTATTTGTT (site CGTAATCCTGA)", "recombinant UMI read abundance (log10)": 0}
{"sequence": "CGGAATCCATGGACCGGTTTTCCCGGTAATCCGTATTTGTT (site CGTAGTCCTAA)", "recombinant UMI read abundance (log10)": 0.00941}
{"sequence": "CGGAATCCATGGACCGGTTTTCCCGGTAATCCGTATTTGTT (site CGTTATCCTAA)", "recombinant UMI read abundance (log10)": 0.00294}
{"sequence": "CGGAATCCATGGACCGGTTTTCCCGGTAATCCGTATTTGTT (site CTCAATCCTAA)", "recombinant UMI read abundance (log10)": 0}
{"sequence": "CGGAATCCATGGACCGGTTTTCCCGGTAATCCGTATTTGTT (site CTGAACCCTAA)", "recombinant UMI read abundance (log10)": 0.0207}
{"sequence": "CGGAATCCATGGACCGGTTTTCCCGGTAATCCGTATTTGTT (site CTGAATCCTAA)", "recombinant UMI read abundance (log10)": 0.0031}
{"sequence": "CGGAATCCATGGACCGGTTTTCCCGGTAATCCGTATTTGTT (site CTGAATCCTAC)", "recombinant UMI read abundance (log10)": 0}
{"sequence": "CGGAATCCATGGACCGGTTTTCCCGGTAATCCGTATTTGTT (site CTGAATCCTCA)", "recombinant UMI read abundance (log10)": 0.0195}
{"sequence": "CGGAATCCATGGACCGGTTTTCCCGGTAATCCGTATTTGTT (site CTGAATGCTAA)", "recombinant UMI read abundance (log10)": 0.00589}
{"sequence": "CGGAATCCATGGACCGGTTTTCCCGGTAATCCGTATTTGTT (site CTGACTCCTAA)", "recombinant UMI read abundance (log10)": 0.00378}
{"sequence": "CGGAATCCATGGACCGGTTTTCCCGGTAATCCGTATTTGTT (site CTGCATCCTAA)", "recombinant UMI read abundance (log10)": 0.0146}
{"sequence": "CGGAATCCATGGACCGGTTTTCCCGGTAATCCGTATTTGTT (site GAGAATCCTAA)", "recombinant UMI read abundance (log10)": 0.00637}
{"sequence": "CGGAATCCATGGACCGGTTTTCCCGGTAATCCGTATTTGTT (site GGGAAGCCTAA)", "recombinant UMI read abundance (log10)": 0.0234}
{"sequence": "CGGAATCCATGGACCGGTTTTCCCGGTAATCCGTATTTGTT (site GGGAATACTAA)", "recombinant UMI read abundance (log10)": 0}
{"sequence": "CGGAATCCATGGACCGGTTTTCCCGGTAATCCGTATTTGTT (site GGGAATCCTAA)", "recombinant UMI read abundance (log10)": 0}
{"sequence": "CGGAATCCATGGACCGGTTTTCCCGGTAATCCGTATTTGTT (site GGGAATCCTAT)", "recombinant UMI read abundance (log10)": 0}
{"sequence": "CGGAATCCATGGACCGGTTTTCCCGGTAATCCGTATTTGTT (site GGGAATCCTGA)", "recombinant UMI read abundance (log10)": 0}
{"sequence": "CGGAATCCATGGACCGGTTTTCCCGGTAATCCGTATTTGTT (site GGGAGTCCTAA)", "recombinant UMI read abundance (log10)": 0.00491}
{"sequence": "CGGAATCCATGGACCGGTTTTCCCGGTAATCCGTATTTGTT (site GGGTATCCTAA)", "recombinant UMI read abundance (log10)": 0}
{"sequence": "CGGAATCCATGGACCGGTTTTCCCGGTAATCCGTATTTGTT (site GGTAATCCTAA)", "recombinant UMI read abundance (log10)": 0}
{"sequence": "CGGAATCCATGGACCGGTTTTCCCGGTAATCCGTATTTGTT (site TGCAATCCTAA)", "recombinant UMI read abundance (log10)": 0.0105}
{"sequence": "CGGAATCCATGGACCGGTTTTCCCGGTAATCCGTATTTGTT (site TGGAACCCTAA)", "recombinant UMI read abundance (log10)": 0.0136}
{"sequence": "CGGAATCCATGGACCGGTTTTCCCGGTAATCCGTATTTGTT (site TGGAATCCTAA)", "recombinant UMI read abundance (log10)": 0}
{"sequence": "CGGAATCCATGGACCGGTTTTCCCGGTAATCCGTATTTGTT (site TGGAATCCTAC)", "recombinant UMI read abundance (log10)": 0}
{"sequence": "CGGAATCCATGGACCGGTTTTCCCGGTAATCCGTATTTGTT (site TGGAATCCTCA)", "recombinant UMI read abundance (log10)": 0.00675}
{"sequence": "CGGAATCCATGGACCGGTTTTCCCGGTAATCCGTATTTGTT (site TGGAATGCTAA)", "recombinant UMI read abundance (log10)": 0.00525}
{"sequence": "CGGAATCCATGGACCGGTTTTCCCGGTAATCCGTATTTGTT (site TGGACTCCTAA)", "recombinant UMI read abundance (log10)": 0.027}
{"sequence": "CGGAATCCATGGACCGGTTTTCCCGGTAATCCGTATTTGTT (site TGGCATCCTAA)", "recombinant UMI read abundance (log10)": 0.00352}
{"sequence": "CGGAATCCATGGACCGGTTTTCCCGGTAATCCGTATTTGTT (site TTGAATCCTAA)", "recombinant UMI read abundance (log10)": 0.00378}
{"sequence": "CGGAATGCATGGACCGGTTTTCCCGGTAATCCGTATTTGCA (site CGGAATGCTTG)", "recombinant UMI read abundance (log10)": 2.28}
